Consider 58 compounds from BindingDB's records for doi:10.7270/Q2T72FVT (University of Pittsburgh, 2007).

In general, IC50 refers to the concentration at which inhibition is half-maximal.

Bounds are passed on as bounds.

Chain of Serine/threonine-protein kinase PLK1 (P53350 whole entry, the tested form may be a part): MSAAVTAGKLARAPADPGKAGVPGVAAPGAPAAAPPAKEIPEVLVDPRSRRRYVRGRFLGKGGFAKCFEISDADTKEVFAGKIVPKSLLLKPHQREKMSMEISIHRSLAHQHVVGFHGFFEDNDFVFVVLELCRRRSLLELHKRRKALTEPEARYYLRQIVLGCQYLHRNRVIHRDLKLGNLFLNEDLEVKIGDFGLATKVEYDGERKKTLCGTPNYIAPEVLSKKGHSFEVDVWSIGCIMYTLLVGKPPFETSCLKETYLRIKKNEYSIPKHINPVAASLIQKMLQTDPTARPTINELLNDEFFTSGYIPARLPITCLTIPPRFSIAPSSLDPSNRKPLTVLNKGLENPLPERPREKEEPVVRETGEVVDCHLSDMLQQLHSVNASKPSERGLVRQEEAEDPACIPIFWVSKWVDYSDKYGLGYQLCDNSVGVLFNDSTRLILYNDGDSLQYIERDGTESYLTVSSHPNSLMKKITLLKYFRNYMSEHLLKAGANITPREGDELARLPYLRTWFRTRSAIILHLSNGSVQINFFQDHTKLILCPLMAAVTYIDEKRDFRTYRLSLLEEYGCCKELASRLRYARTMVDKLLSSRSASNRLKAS

This assay concerns the target Serine/threonine-protein kinase PLK1 (Homo sapiens, UniProt P53350). As to the kind of experiment: Plk1 polo box domain binding inhibitors, dose response, biochemical, fluorescence polarization (AID 877).
Turning to `Cc1ccc2cc(C(c3nnnn3C3CCCC3)N3CCN(c4ccccc4)CC3)c(=O)[nH]c2c1` (stereo not drawn) [3-[(1-cyclopentyltetrazol-5-yl)-(4-phenylpiperazin-1-yl)methyl]-7-methyl-1H-quinolin-2-one], the IC50 is above 50 µM.

In turn, `CC1CCCC(NC2CCCCNC2=O)C1` (stereo not drawn) [3-[(3-methylcyclohexyl)amino]-2-azepanone] returned an IC50 above 50 µM.

`Cc1nc2cccc(C)n2c(=O)c1Cl` [3-chloranyl-2,6-dimethyl-pyrido[1,2-a]pyrimidin-4-one] had a half-maximal inhibitory concentration (IC50) above 50 µM.

The compound `CCn1cnc2sc(C(=O)N3CCN(c4ccc(OC)cc4)CC3)c(C)c2c1=O` [3-ethyl-6-[4-(4-methoxyphenyl)piperazin-1-yl]carbonyl-5-methyl-thieno[2,3-d]pyrimidin-4-one] displayed an IC50 above 50 µM.

The compound `O=C1Nc2ccc([N+](=O)[O-])cc2C1(O)N1CCCCC1` (stereo not drawn) [3-hydroxy-5-nitro-3-(1-piperidinyl)-1,3-dihydro-2H-indol-2-one] yielded an IC50 above 50 µM.

On to `CC1CN(C2CC(C)(C)NC(C)(C)C2)CCC1=O` (stereo not drawn) [3-methyl-1-(2,2,6,6-tetramethyl-4-piperidinyl)-4-piperidinone], for which the IC50 was above 50 µM.

Compound `O=C(NC(NC(=S)Nc1ccc(Cl)cc1Cl)C(Cl)(Cl)Cl)c1cccc([N+](=O)[O-])c1` (stereo not drawn) [3-nitro-N-[2,2,2-trichloro-1-({[(2,4-dichlorophenyl)amino]carbonothioyl}amino)ethyl]benzamide] yielded an IC50 above 50 µM.

On to `Cc1cccc(C)c1NC1=NC(=S)N(c2ccccc2)C12CCOC(C)(C)C2` (stereo not drawn) [4-(2,6-dimethylanilino)-7,7-dimethyl-1-phenyl-8-oxa-1,3-diazaspiro[4.5]dec-3-ene-2-thione], for which the IC50 was above 50 µM.

In turn, `Cc1ccccc1Oc1ncnc2oc(-c3ccccc3)cc12` [4-(2-methylphenoxy)-6-phenyl-furo[2,3-d]pyrimidine] registered an IC50 above 50 µM.

`Cc1ccc(C(=O)c2c[nH]c(C(=O)NCCCN3CCOCC3)c2)cc1` [4-(4-methylbenzoyl)-N-(3-morpholin-4-ylpropyl)-1H-pyrrole-2-carboxamide] yielded an IC50 above 50 µM.

Compound `CN(C)c1ccc(C(=O)Nc2nc3c(s2)CCCC3)cc1` [4-(dimethylamino)-N-(4,5,6,7-tetrahydro-1,3-benzothiazol-2-yl)benzamide] returned an IC50 above 50 µM.

Take `O=C(CN1C(=O)COc2ccccc21)NCc1ccc(C(=O)O)cc1` [4-[[2-(3-oxidanylidene-1,4-benzoxazin-4-yl)ethanoylamino]methyl]benzoic acid]: the 50% inhibitory concentration (IC50) is above 50 µM.

`CCCc1nc2sc3c(c2c(=O)n1NC(=O)CCC(=O)O)CCCC3` [4-keto-4-[(4-keto-2-propyl-5,6,7,8-tetrahydrobenzothiopheno[2,3-d]pyrimidin-3-yl)amino]butyric acid] displayed an IC50 above 50 µM.

In the case of `Cc1ccc(C(=O)Nc2cnc3sc(C)nn3c2=O)cc1` [4-methyl-N-(2-methyl-5-oxidanylidene-[1,3,4]thiadiazolo[3,2-a]pyrimidin-6-yl)benzamide], the IC50 was above 50 µM.

Consider `CC1(C)CC(=O)C=C(NCc2ccncc2)C1` [5,5-dimethyl-3-(4-pyridylmethylamino)cyclohex-2-en-1-one], for which the IC50 was above 50 µM.

`CC(C)(C)NC(=O)CC(CC(=O)O)c1ccccc1` (stereo not drawn) [5-(tert-butylamino)-5-keto-3-phenyl-valeric acid] returned an IC50 above 50 µM.

The compound `C=CCn1c2ccccc2c2nnc(SCc3ccc4nonc4c3)nc21` [5-[(5-prop-2-enyl-[1,2,4]triazino[5,6-b]indol-3-yl)sulfanylmethyl]-2,1,3-benzoxadiazole] registered an IC50 above 50 µM.

For the compound `O=C(CNS(=O)(=O)c1ccc(Br)s1)N1CCCC1` [5-bromanyl-N-(2-oxidanylidene-2-pyrrolidin-1-yl-ethyl)thiophene-2-sulfonamide], the IC50 was above 50 µM.

In turn, `Cc1ccc(NC(=O)C2CC=CCC2C(=O)N2CCCCC2)cc1` (stereo not drawn) [6-(Piperidine-1-carbonyl)-cyclohex-3-enecarboxylic acid p-tolylamide] had a half-maximal inhibitory concentration (IC50) above 50 µM.

With `COc1ccc2c3c(cccc13)NN=C2C` [6-Methoxy-3-methyl-1H-benzo[de]cinnoline], the IC50 was above 50 µM.

For the compound `Cc1ccc(Cl)cc1N1CCN(S(=O)(=O)c2ccc3c(c2)oc(=O)n3C)CC1` [6-[4-(5-chloranyl-2-methyl-phenyl)piperazin-1-yl]sulfonyl-3-methyl-1,3-benzoxazol-2-one], the IC50 is above 50 µM.

`CC(C)Nc1nnc(SCC(=O)c2c(N)n(Cc3ccccc3)c(=O)n(C)c2=O)s1` [6-amino-1-benzyl-3-methyl-5-[2-[[5-(propan-2-ylamino)-1,3,4-thiadiazol-2-yl]sulfanyl]acetyl]pyrimidine-2,4-dione] yielded an IC50 above 50 µM.

Take `O=C1CCN2C=Nc3cccc4ccc1c2c34` [7,8-dihydro-9H-pyrido[1,2,3-cd]perimidin-9-one]: the concentration for half-maximal inhibition (IC50) was 25.1 µM.

In turn, `CCOC(=O)c1c2c(n(C)c1C)C(=O)C(=O)c1ccc(Br)cc1-2` [8-bromo-2,3-dimethyl-4,5-dioxo-1-benzo[e]indolecarboxylic acid ethyl ester] yielded an IC50 of 10.4 µM.

Compound `Oc1ccc2ccc3cccc[n+]3c2c1` [9-benzo[c]quinolizin-11-iumol;iodide] showed a half-maximal inhibitory concentration (IC50) of 8.73 µM.

For `COc1ccc(N(C)C2=NS(=O)(=O)c3ccccc32)cc1` [(1,1-Dioxo-1H-1lambda*6*-benzo[d]isothiazol-3-yl)-(4-methoxy-phenyl)-methyl-amine], the IC50 is above 50 µM.

`CC1Cc2ccccc2N1C(=O)c1ccc2c(c1)nnn2C` (stereo not drawn) [(1-methyl-5-benzotriazolyl)-(2-methyl-2,3-dihydroindol-1-yl)methanone] gave an IC50 above 50 µM.

With `COc1cccc(OC)c1C(=O)N1CCN(c2ccccn2)CC1` [(2,6-dimethoxyphenyl)-(4-pyridin-2-ylpiperazin-1-yl)methanone], the IC50 was above 50 µM.

With `O=[N+]([O-])c1ccc(N2CCNCC2)cc1NCC1CCCO1` (stereo not drawn) [(2-nitro-5-piperazino-phenyl)-(tetrahydrofurfuryl)amine], the IC50 was above 50 µM.

The compound `CCOC(=O)Cc1csc(NC(=O)CSc2nnc(-c3ccc(F)cc3)o2)n1` [(2-{2-[5-(4-Fluoro-phenyl)-[1,3,4]oxadiazol-2-ylsulfanyl]-acetylamino}-thiazol-4-yl)-acetic acid ethyl ester] showed an IC50 above 50 µM.

In turn, `CCc1noc(C)c1C(=O)N1CCOCC1` [(3-ethyl-5-methyl-1,2-oxazol-4-yl)-morpholin-4-yl-methanone] had an IC50 above 50 µM.

In the case of `CC1Cn2c(nnc2-c2cc3ccccc3cc2O)S1` (stereo not drawn) [(3E)-3-(6-methyl-5,6-dihydro-2H-[1,3]thiazolo[2,3-c][1,2,4]triazol-3-ylidene)naphthalen-2-one], the concentration for half-maximal inhibition (IC50) was above 50 µM.

Turning to `COc1ccc2c(c1OC)C(=O)OC2CC(=O)O` (stereo not drawn) [(4,5-dimethoxy-3-oxo-1,3-dihydro-2-benzofuran-1-yl)acetic acid], the IC50 is above 50 µM.

Regarding `Nc1cc2nsnc2cc1Br` [(6-bromopiazthiol-5-yl)amine], the 50% inhibitory concentration (IC50) came to 40.8 µM.

As to `OCC(CO)(CO)N=Cc1cc(Br)ccc1O` [(6E)-4-bromanyl-6-[[[2-(hydroxymethyl)-1,3-bis(oxidanyl)propan-2-yl]amino]methylidene]cyclohexa-2,4-dien-1-one], the IC50 was above 50 µM.

`C/C(=C\C(=O)Nc1cc(C)on1)c1ccccc1` [(E)-N-(5-methyl-1,2-oxazol-3-yl)-3-phenyl-but-2-enamide]: the IC50 is above 50 µM.

Compound `CCC(=O)N1CCN(c2ccc(NC(=O)c3ccc4c(c3)OCO4)cc2)CC1` [Benzo[1,3]dioxole-5-carboxylic acid [4-(4-propionyl-piperazin-1-yl)-phenyl]-amide] showed an IC50 above 50 µM.

As for `O=C(NC1(C(F)(F)F)NC(=O)N(CC2CCCCC2)C1=O)c1ccco1` (stereo not drawn) [MLS000040678], the IC50 is above 50 µM.

For `CCn1ccc(C(=O)Nc2ccc(N(C)C(C)=O)cc2)n1` [MLS000043435], the IC50 was above 50 µM.

Compound `Cc1ccccc1NS(=O)(=O)c1cc(C(=O)NCc2ccco2)ccc1C` [MLS000052108] yielded an IC50 above 50 µM.

In turn, `c1ccc(NCc2nnc3n2CCCCC3)cc1` [MLS000057041] came in with an IC50 above 50 µM.

Take `CCc1nc2cc(Cl)c(Cl)cc2[nH]1` [MLS000064722]: the IC50 was above 50 µM.

For `COc1ccc(C(C)C)cc1S(=O)(=O)Nc1ccc(Cl)cn1` [MLS000071127], the IC50 was above 50 µM.

In the case of `O=C1C(=C2C(=O)c3ccccc3C2=O)Nc2ccccc21` [MLS000071738], the half-maximal inhibitory concentration (IC50) is above 50 µM.

Regarding `CCC(=O)Nc1ccc(-c2nnc(SCC(=O)Nc3nccs3)n2C)cc1` [MLS000076456], the IC50 is above 50 µM.

With `CC(C)OCCCNC(=O)c1ccc(NC(=O)C2CCCO2)cc1` (stereo not drawn) [MLS000086701], the IC50 was above 50 µM.

`CCOCCCNC(=O)CCCOc1ccccc1` [MLS000088375]: the concentration for half-maximal inhibition (IC50) was above 50 µM.

In turn, `CC(C)=CC(=O)NCCc1ccccc1` [MLS000089152] displayed a half-inhibitory concentration (IC50) above 50 µM.

The compound `O=C(COc1ccccc1)Nc1ccc(S(=O)(=O)N2CCOCC2)cc1` [MLS000108227] yielded an IC50 above 50 µM.

`CCC(C)c1ccc(NC(=O)C2CC2)cc1` (stereo not drawn) [MLS000110184] had an IC50 above 50 µM.

`O=C(Nc1nc2ccccc2s1)c1cc2c(s1)-c1ccccc1OC2` [MLS000522634] displayed an IC50 above 50 µM.

`Cn1cc(SCC(=O)Nc2ccc3c(c2)OCCO3)c2ccccc21` [MLS000529783]: the IC50 was above 50 µM.

With `CCC(=O)Nc1ccccc1C(=O)NC1CCCCC1` [MLS000538265], the IC50 is above 50 µM.

The compound `Cc1[nH]n2c(=O)cc(-c3ccc([N+](=O)[O-])cc3)nc2c1-c1ccccc1` [MLS000547439] gave an IC50 above 50 µM.

As for `CCOc1ccccc1N1CCN(C2=C(NS(=O)(=O)c3cccs3)C(=O)c3ccccc3C2=O)CC1` [MLS000551587], the IC50 is above 50 µM.

Turning to `O=C(NCCc1ccccc1)/C(=C\c1ccc([N+](=O)[O-])cc1)NC(=O)c1ccccc1` [MLS000575866], the concentration for half-maximal inhibition (IC50) was above 50 µM.

`O=C(NC1(O)C(=O)c2ccccc2C1=O)c1ccccc1` [N-(2-hydroxy-1,3-dioxo-2-indenyl)benzamide]: the IC50 was above 50 µM.

On to `CC(=O)N(N=C1Sc2ccccc2C1=O)c1ccccc1C` [N-(2-methylphenyl)-N-[(3-oxo-1-benzothiophen-2-ylidene)amino]acetamide], for which the IC50 is 37.3 µM.
